Measured values from patent US4308259A, “Penicillin derivatives” (Beecham Group Limited, priority 1979, dated 1981).
Counter-ions that a name gives are not always drawn. Like-named read-outs stand apart in the source and are kept apart here.

Experiments:
Format in all cases: cell-based
E. coli JT 4 = assay: MIC (antibacterial activity) against E. coli JT 4; details: Escherichia coli, JT4
E. coli JT 425 = assay: MIC against E. coli JT 425; details: Escherichia coli, JT425
E. coli NCTC 10418 = assay: MIC against E. coli NCTC 10418; details: Escherichia coli, NCTC10418
[1] = system: Ps. aeruginosa NCTC 10662; assay: MIC against Ps. aeruginosa NCTC 10662
Ps. aeruginosa Dalgleish = assay: MIC against Ps. aeruginosa Dalgleish; details: Pseudomonas aeruginosa; Ps. aeruginosa Dalgleish 10^-2
S. marcescens US 32 = assay: MIC against S. marcescens US 32; details: Serratia marcescens, US32
K. aerogenes A = assay: MIC against K. aerogenes A; details: Klebsiella aerogenes
E. cloacae N1 = assay: MIC against E. cloacae N1; details: Enterobacter cloacae
P. mirabilis C 977 = assay: MIC against P. mirabilis C 977; details: Proteus mirabilis, C977
P. mirabilis 889 = assay: MIC against P. mirabilis 889; details: Proteus mirabilis
P. morganii = assay: MIC against P. morganii; details: Morganella morganii
P. rettgeri = assay: MIC against P. rettgeri; details: Providencia rettgeri
B. subtilis = assay: MIC against B. subtilis; details: Bacillus subtilis
S. aureus Oxford = assay: MIC against S. aureus Oxford; details: Staphylococcus aureus
S. aureus Russell = assay: MIC against S. aureus Russell; details: Staphylococcus aureus
S. faecalis I = assay: MIC against S. faecalis I; details: Enterococcus faecalis
S. pyogenes CN 10 = assay: MIC against S. pyogenes CN 10; details: Streptococcus pyogenes, CN10
N. catarrhalis 1502 = assay: MIC against N. catarrhalis 1502
[2] = Pseudomonas aeruginosa, NCTC10662, Ps. aeruginosa NCTC 10662 10^-2, read-out: MIC
[3] = Pseudomonas aeruginosa, NCTC10662, Ps. aeruginosa NCTC 10662, read-out: MIC

Row | MIC (E. coli JT 4) [mg/L] | MIC (E. coli JT 425; E. coli JT 425, read-out: MIC) [mg/L] | MIC (E. coli NCTC 10418) [mg/L] | MIC [1, 2] [mg/L] | MIC [1, 3] [mg/L] | MIC (Ps. aeruginosa Dalgleish) [mg/L] | MIC (S. marcescens US 32) [mg/L] | MIC (K. aerogenes A) [mg/L] | MIC (E. cloacae N1) [mg/L] | MIC (P. mirabilis C 977) [mg/L] | MIC (P. mirabilis 889) [mg/L] | MIC (P. morganii) [mg/L] | MIC (P. rettgeri; P. rettgeri, read-out: MIC) [mg/L] | MIC (B. subtilis) [mg/L] | MIC (S. aureus Oxford) [mg/L] | MIC (S. aureus Russell) [mg/L] | MIC (S. faecalis I) [mg/L] | MIC (S. pyogenes CN 10) [mg/L] | MIC (N. catarrhalis 1502) [mg/L] | SMILES | other results
1 | 25 | 10 | 25 | > 100 | > 100 | 50 | > 100 | 2.5 | 25 | 5 | 5 | 10 | 10 | > 100 | > 100 | > 100 | > 100 | 50 |  | CO[C@@]1(NC(=O)C(c2ccccc2)S(=O)(=O)O)C(=O)N2[C@@H](C(=O)O)C(C)(C)S[C@@H]21 (stereo partly drawn) [Example 1, Disodium 6,α-methoxy-6,β -(2-phenyl-2-sulphoacetamido) penicillanate] | 
2 | 10 | 10 | 10 | 25 | 25 | 25 | 25 | 2.5 | 5 | 5 | 10 | 5 | 6 | > 100 | > 100 | > 100 | > 100 | 25 | 0.05 | CO[C@@]1(NC(=O)C(c2ccc(N)cc2)S(=O)(=O)O)C(=O)N2[C@@H](C(=O)O)C(C)(C)S[C@@H]21 (stereo partly drawn) [Example 4, Disodium 6,β-[2-(4-aminophenyl)-2-sulphoacetamido]-6,α-methoxy-penicillanate] | 
3 | 25 | 25 | 25 | 50 | 50 | 25 | 100 | 10 | 10 | 25 | 25 | 25 | 10 | > 100 | > 100 | > 100 | > 100 | 25 | 0.2 | CO[C@@]1(NC(=O)C(c2ccc(O)cc2)S(=O)(=O)O)C(=O)N2[C@@H](C(=O)O)C(C)(C)S[C@@H]21 (stereo partly drawn) [Example 8, Disodium 6,β-[2-(4-hydroxyphenyl)-2-sulphoacetamido]-6,α-methoxypenicillanate] | 

Continued, molecule first:

Row | SMILES | MIC (E. coli JT 4) [mg/L] | MIC (E. coli JT 425; E. coli JT 425, read-out: MIC) [mg/L] | MIC (E. coli NCTC 10418) [mg/L] | MIC [1, 2] [mg/L] | MIC [1, 3] [mg/L] | MIC (Ps. aeruginosa Dalgleish) [mg/L] | MIC (S. marcescens US 32) [mg/L] | MIC (K. aerogenes A) [mg/L] | MIC (E. cloacae N1) [mg/L] | MIC (P. mirabilis C 977) [mg/L] | MIC (P. mirabilis 889) [mg/L] | MIC (P. morganii) [mg/L] | MIC (P. rettgeri; P. rettgeri, read-out: MIC) [mg/L] | MIC (B. subtilis) [mg/L] | MIC (S. aureus Oxford) [mg/L] | MIC (S. aureus Russell) [mg/L] | MIC (S. faecalis I) [mg/L] | MIC (S. pyogenes CN 10) [mg/L] | MIC (N. catarrhalis 1502) [mg/L] | other results
4 | CO[C@@]1(NC(=O)C(c2ccccc2)P(=O)(O)OC)C(=O)N2[C@@H](C(=O)O)C(C)(C)S[C@@H]21 (stereo partly drawn) [Example 6, 6,α-Methoxy-6,β-(2-O-methylphosphono-2-phenylacetamido)penicillanic acid disodium salt] | 125 |  | 50 |  | 500 | 250 | 125 | 12.5 | 12.5 | 25 | 50 | 50 |  | > 500 | > 500 | > 500 | > 500 | > 500 | 0.5 | MIC (E. coli JT 425): 50 mg/L; MIC ([1]; Ps. aeruginosa NCTC 10662 10^-2): 500 mg/L; MIC (P. rettgeri): 12.5 mg/L
5 | CO[C@@]1(NC(=O)C(c2ccccc2F)S(=O)(=O)O)C(=O)N2[C@@H](C(=O)O)C(C)(C)S[C@@H]21 (stereo partly drawn) [Example 9, Disodium 6,β-[2-(2-fluorophenyl)-2-sulphoacetamido]-6,α-methoxypenicillanate] | 25 | 10 | 10 | 100 | > 100 | 100 | 50 | 2.5 | 2.5 | 5 | 5 | 5 | 5 | 25 | 25 | 50 | > 100 | 5 | < 0.02 | 
